Here are results for 39 compounds from patent US20160222014A1, “COMPOUNDS FOR REGULATING FAK AND/OR SRC PATHWAYS” (ASANA BIOSCIENCES, LLC, priority 2013, published 2016).

Molecules are shown by their SMILES.

T1 sequence (P12931 whole entry): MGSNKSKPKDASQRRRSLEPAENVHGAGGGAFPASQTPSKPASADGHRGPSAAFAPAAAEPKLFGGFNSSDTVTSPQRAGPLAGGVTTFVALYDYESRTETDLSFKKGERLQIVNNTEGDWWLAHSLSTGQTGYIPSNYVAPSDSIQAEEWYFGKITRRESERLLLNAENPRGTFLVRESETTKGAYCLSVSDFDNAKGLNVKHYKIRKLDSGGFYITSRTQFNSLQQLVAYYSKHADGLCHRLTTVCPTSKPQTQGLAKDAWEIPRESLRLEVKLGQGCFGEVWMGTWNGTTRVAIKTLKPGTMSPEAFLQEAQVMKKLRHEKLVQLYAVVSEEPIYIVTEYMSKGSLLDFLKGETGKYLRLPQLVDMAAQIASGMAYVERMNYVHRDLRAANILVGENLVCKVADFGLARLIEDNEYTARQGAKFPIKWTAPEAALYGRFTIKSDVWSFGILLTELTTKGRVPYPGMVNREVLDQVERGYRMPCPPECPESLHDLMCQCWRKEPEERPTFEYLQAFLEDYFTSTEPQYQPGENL
T4 sequence (Q96GD4 whole entry): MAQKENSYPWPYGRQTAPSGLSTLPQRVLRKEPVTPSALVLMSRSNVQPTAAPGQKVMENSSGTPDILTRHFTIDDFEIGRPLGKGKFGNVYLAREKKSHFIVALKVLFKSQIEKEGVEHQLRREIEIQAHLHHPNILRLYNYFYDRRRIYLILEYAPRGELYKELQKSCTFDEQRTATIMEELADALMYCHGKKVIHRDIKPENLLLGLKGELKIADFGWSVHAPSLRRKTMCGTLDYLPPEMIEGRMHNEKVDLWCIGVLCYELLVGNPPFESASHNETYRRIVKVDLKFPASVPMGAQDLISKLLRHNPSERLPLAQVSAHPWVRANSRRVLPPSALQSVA

One test has as its target T1, Recombinant Src enzyme (Homo sapiens, UniProt P12931).
T1 construct: purchased Millipore 14-326; host or cells: Sf21 insect cells
Put plainly: Src HTRF assay. The format is biochemical.
Conditions: not given
The procedure, abridged:
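Sf21-expressed recombinant Src at 5 nM final with biotinylated N-terminally tagged Tyk2 peptide substrate at 0.5 μM final; a component freshly made in enzyme assay buffer pH7.4 was used at 10 μM final. Buffer, supplements, compound handling and procedure as in the FAK HTRF assay; dasatinib included.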
(TR-FRET usually uses a lanthanide donor and a delayed reading to cut background.)
Consider `COc1cc(N2CCNCC2)ccc1Nc1cc2c(cn1)C(C)(C)CN2S(=O)(=O)c1cccc2cccnc12` [Example 635], for which the concentration for half-maximal inhibition (IC50) is greater than 1000 nM.

The next test deals with T2, FAK phosphorylated at Y397 in HEK-FAK cell line overexpressing human FL FAK protein (Homo sapiens, UniProt Q05397).
T2 construct: expressed in transfected cells
T2 sequence (Q05397 whole entry): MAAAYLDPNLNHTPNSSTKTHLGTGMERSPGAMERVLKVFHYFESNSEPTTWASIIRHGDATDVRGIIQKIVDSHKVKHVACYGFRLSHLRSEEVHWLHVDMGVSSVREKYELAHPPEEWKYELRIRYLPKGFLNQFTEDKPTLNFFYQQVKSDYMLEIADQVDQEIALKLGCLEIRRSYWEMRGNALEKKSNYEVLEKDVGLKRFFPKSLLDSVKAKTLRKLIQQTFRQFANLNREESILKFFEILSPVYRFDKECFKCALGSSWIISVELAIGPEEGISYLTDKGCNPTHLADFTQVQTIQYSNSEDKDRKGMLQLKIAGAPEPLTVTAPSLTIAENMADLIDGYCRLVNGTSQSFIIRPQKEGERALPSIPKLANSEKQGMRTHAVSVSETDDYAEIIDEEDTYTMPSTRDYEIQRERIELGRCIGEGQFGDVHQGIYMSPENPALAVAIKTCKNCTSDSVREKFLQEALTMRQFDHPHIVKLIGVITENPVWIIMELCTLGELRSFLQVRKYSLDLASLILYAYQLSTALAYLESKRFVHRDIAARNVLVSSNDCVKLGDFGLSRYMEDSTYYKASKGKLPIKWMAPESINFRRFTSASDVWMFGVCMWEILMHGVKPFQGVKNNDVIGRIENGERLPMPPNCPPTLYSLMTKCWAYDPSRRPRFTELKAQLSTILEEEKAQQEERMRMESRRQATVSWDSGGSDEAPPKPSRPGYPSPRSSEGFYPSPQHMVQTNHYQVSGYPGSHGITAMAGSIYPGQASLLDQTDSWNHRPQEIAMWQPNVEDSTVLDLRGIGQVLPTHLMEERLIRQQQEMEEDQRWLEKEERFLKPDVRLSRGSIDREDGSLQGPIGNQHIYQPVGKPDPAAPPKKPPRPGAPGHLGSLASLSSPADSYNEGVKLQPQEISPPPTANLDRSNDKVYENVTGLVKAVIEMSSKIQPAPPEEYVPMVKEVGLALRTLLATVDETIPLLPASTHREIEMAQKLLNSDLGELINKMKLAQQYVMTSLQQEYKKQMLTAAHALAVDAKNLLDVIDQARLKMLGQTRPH
As to the kind of experiment: Cell based assay, Phospho-FAK ELISA. The following applies: HEK stb; read-out: pFAK EC50 (μM) HEK stb. The text has this:
D. Cell Based Assay-Phospho-FAK ELISA
The DuoSet IC ELISA (R&D systems—Cat no. DYC4528-5) provided the basic components required for the development of sandwich ELISAs to measure Focal Adhesion Kinase 1 (FAK) phosphorylated at Y397 in cell lysates. An immobilized capture antibody specific for FAK, also known as PTK2, binds both phosphorylated and unphosphorylated protein. After washing away unbound material, a biotinylated detection antibody specific for FAK phosphorylated at Y397 was used to detect only phosphorylated protein, utilizing a standard Streptavidin-HRP format. The cell line used for the assay was a stable HEK-FAK cell line overexpressing human FL FAK protein, which was generated as follows.
HEK293 cells (ATCC® CRL-1573™, 10801 University Boulevard, Manassas, Va. 20110 USA) were seeded in four 100 mm petri dishes at a seeding density of 1.5×10^6 cells per plate and incubated overnight at 37° C. in a 5% CO2 incubator. The transfection mix was prepared as follows. (A) 10 μg DNA (pCDNA4 V5/HisA vector containing Zeocin as mammalian selection marker, procured from Invitrogen) with the full length human FAK gene represented by the nucleotide sequence provided in NCBI Reference Sequence: NM_153831.3, SEQ ID NO: 1:
was added to 1.5 mL Opti-MEM® (reduced serum media is a modification of Eagle's Minimum Essential Media, buffered with HEPES and sodium bicarbonate and supplemented with hypoxanthine, thymidine, sodium pyruvate, L-glutamine, trace elements and growth factors commercially available from Invitrogen) and incubated at room temperature for 5 minutes. (B) 30 μL Lipofectamine™ Transfection reagent (Life Technologies) was added to 1.5 mL Opti-MEM® and incubated at room temperature for 5 minutes. Following this, (a) and (b) were mixed and incubated at room temperature for 20 minutes. Media was removed from cells and washed with 1× phosphate buffered saline (PBS) and the transfection mix prepared above was mixed with 3 mL of Opti-MEM®, added to the cells and incubated at 37° C. Four hours later, 6 mL of 20% Dulbecco's Modified Eagle Medium (DMEM) was added to the plates and incubated at 37° C. in a 5% CO2 incubator. Approximately 72 hours after transfection, cells were subcultured at various dilutions with fresh medium containing 0.8 mg/mL Zeocin™ (Life Technologies). Cells were replenished with selective medium every 3-4 days until cell foci were identified in the FAK transfected cells and most of the cells died in the control plates. Cells from these foci were grown in the presence of selective media and the expression of FAK was confirmed by Western Blotting. Over expression of FAK in the stably-transfected cells was quantified in the cell-based ELISA assay described below by determining the signal window, with a signal window of 2 or above considered to be robust). The HEK-FAK stable cell line thus was maintained in 0.8 mg/mL Zeocin™ (Life Technologies) and used in cell-based ELISA to assess autophosphorylation of FAK.
(i) Materials • 1. Phospho-FAK (Y397)-Capture Antibody • 2. Phospho-FAK (Y397)-Detection Antibody • 3. Streptavidin-HRP • 4. Cells used for the assay-HEK over expressing human FL FAK protein
(ii) Solutions • PBS—137 mM NaCl, 2.7 mM KCl, 8.1 mM Na2HPO4, 1.5 mM KH2PO4, pH 7.2-7.4, 0.2 μm filtered. • Wash Buffer—0.05% Tween20™ in PBS, pH 7.2-7.4 • Block Buffer—1% BSA, 0.05% NaN3, in PBS, pH 7.2-7.4. • IC Diluent #1-1% BSA in PBS, pH 7.2-7.4, 0.2 μm filtered. • IC Diluent #8-1 mM EDTA, 0.5% Triton™ X-100, 5 mM NaF in PBS, pH 7.2-7.4. IC Diluent #8 was also the base buffer for IC Diluent #3, IC Diluent #7, and Lysis. • Buffer #6. […]
(An ELISA detects its analyte on a solid surface through an enzyme-linked reagent.)
Consider `CN(C)Cc1ccc(Nc2ncc3ccn(Cc4cccnc4N(C)S(C)(=O)=O)c3n2)cc1` [Example 207], for which the EC50 is greater than 1 µM.

Take `CN(c1ncccc1Cn1ccc2cnc(Nc3ccc4c(c3)OCCN4)nc21)S(C)(=O)=O` [Example 221]: the EC50 was greater than 1 µM.

Turning to `Cc1ccccc1S(=O)(=O)n1ccc2cnc(Nc3ccc(N4CCNCC4)cc3)nc21` [Example 233], the EC50 is greater than 1 µM.

As to `O=S(=O)(c1ccccc1Cl)n1ncc2cnc(Nc3ccc(N4CCNCC4)cc3)nc21` [Example 254], the EC50 is greater than 1 µM.

Take `O=S(=O)(c1cccc(Cl)c1)n1ncc2cnc(Nc3ccc(N4CCNCC4)cc3)cc21` [Example 308]: the EC50 was greater than 1 µM.

On to `CC(=O)N1CCN(c2ccc(Nc3cc4c(cn3)cnn4S(=O)(=O)c3ccccc3C#N)cc2)CC1` [Example 341], for which the EC50 was greater than 1 µM.

Consider `CN(c1ncccc1Cn1ccc2cnc(Nc3ccc(N4CC5CC4CN5)cc3)nc21)S(C)(=O)=O` (centres unmarked) [Example 372], for which the EC50 is greater than 1 µM.

`CN(c1ncccc1Cn1ncc2cnc(Nc3ccc(N4CCC(O)CC4)cc3)cc21)S(C)(=O)=O` [Example 394]: the EC50 is greater than 1 µM.

As for `CN(c1ccccc1Cn1ccc2cnc(Nc3ccc4c(c3)C(=O)NC4=O)nc21)S(C)(=O)=O` [Example 435], the EC50 is greater than 1 µM.

`COc1c(Nc2ncc3ccn(Cc4ccccc4N(C)S(C)(=O)=O)c3n2)ccc(N2CCNCC2)c1F` [Example 456]: the half-maximal effective concentration (EC50) is greater than 1 µM.

As to `CC1(C)CN(S(=O)(=O)c2ccccc2OC(F)F)c2nc(Nc3ccc(N4CCNCC4)cc3)ncc21` [Example 464], the EC50 is greater than 1 µM.

Regarding `C[C@H]1CN(C)CCN1c1ccc(Nc2ncc3ccn(Cc4cccnc4N(C)S(C)(=O)=O)c3n2)cc1` [Example 497], the EC50 was greater than 1 µM.

On to `CN1CCCN(c2ccc(Nc3ncc4ccn(Cc5ccccc5N(C)S(C)(=O)=O)c4n3)cc2)CC1` [Example 520], for which the EC50 was greater than 1 µM.

Turning to `CC1CN(c2ccc(Nc3ncc4ccn(Cc5cccnc5N(C)S(C)(=O)=O)c4n3)cc2)CC(C)N1` (centres unmarked) [Example 522], the EC50 was greater than 1 µM.

For `CN(C)C1CCN(c2ccc(Nc3ncc4ccn(Cc5cccnc5N(C)S(C)(=O)=O)c4n3)cc2)CC1` [Example 530], the EC50 was greater than 1 µM.

As to `C[C@@H]1CN(c2ccc(Nc3cc4c(ccn4S(=O)(=O)c4ccccc4C#N)cn3)cc2)CCN1` [Example 537], the EC50 is greater than 1 µM.

Take `CN(c1ncccc1Cn1ccc2cnc(Nc3ccc4c(c3)CC3CNCCN43)nc21)S(C)(=O)=O` (centres unmarked) [Example 538]: the EC50 was greater than 1 µM.

Take `CN(c1ncccc1Cn1ccc2cnc(Nc3ccc(N4CCNC(C)(C)C4=O)cc3)nc21)S(C)(=O)=O` [Example 540]: the EC50 was greater than 1 µM.

For `CN(c1ncccc1Cn1ccc2cnc(Nc3ccc(N4CCCNCC4)cc3)nc21)S(C)(=O)=O` [Example 549], the EC50 was greater than 1 µM.

Take `CN1C(=O)Cc2cc(Nc3ncc4ccn(Cc5cccnc5N(C)S(C)(=O)=O)c4n3)ccc21` [Example 560]: the EC50 is greater than 1 µM.

As to `C[C@@H]1CN(c2ccc(Nc3ncc4ccn(Cc5cccnc5N(C)S(C)(=O)=O)c4n3)cc2F)CCN1` [Example 561], the EC50 is greater than 1 µM.

As for `CN(c1ccccc1Cn1ccc2cnc(Nc3ccc(N4CCNCC4)c(CO)c3)nc21)S(C)(=O)=O` [Example 568], the EC50 is greater than 1 µM.

Consider `CN(C)C1CN(c2ccc(Nc3ncc4ccn(Cc5cccnc5N(C)S(C)(=O)=O)c4n3)cc2)C1` [Example 580], for which the EC50 was greater than 1 µM.

With `CN(C)C1CCN(c2ccc(Nc3ncc4ccn(Cc5cccnc5N(C)S(C)(=O)=O)c4n3)cc2)C1` (centres unmarked) [Example 589], the EC50 is greater than 1 µM.

For `CN(c1ncccc1Cn1ccc2cnc(Nc3ccc(OCCN4CCOCC4)cc3)nc21)S(C)(=O)=O` [Example 613], the EC50 was greater than 1 µM.

With `CCC1CN(c2ccc(Nc3ncc4ccn(Cc5cccnc5N(C)S(C)(=O)=O)c4n3)cc2)CCN1` (centres unmarked) [Example 645], the EC50 was greater than 1 µM.

Turning to `C[C@H](O)CN1CCN(c2ccc(Nc3ncc4ccn(Cc5cccnc5N(C)S(C)(=O)=O)c4n3)cc2)C[C@@H]1C` [Example 663, N-(3-((2-((4-((S)-4-((S)-2-Hydroxypropyl)-3-methylpiperazin-1-yl)phenyl)amino)-7H-pyrrolo[2,3-d]pyrimidin-7-yl)methyl)pyridin-2-yl)-N-methylmethanesulfonamide], the EC50 was greater than 1 µM.

Take `C[C@@H](O)CN1CCN(c2ccc(Nc3ncc4ccn(Cc5cccnc5N(C)S(C)(=O)=O)c4n3)cc2)CC1` [Example 666]: the EC50 was greater than 1 µM.

For the compound `CN(c1ncccc1Cn1ccc2cnc(Nc3ccc4[nH]ccc4c3)nc21)S(C)(=O)=O` [Example 667], the EC50 is greater than 1 µM.

Turning to `CN(c1ncccc1Cn1ccc2cnc(Nc3ccc4[nH]c(C5CCNCC5)cc4c3)nc21)S(C)(=O)=O` [Example 677], the EC50 is greater than 1 µM.

Take `CN(c1ncccc1Cn1ccc2cnc(Nc3ccc(NC4CCNCC4)cc3)nc21)S(C)(=O)=O` [Example 684]: the EC50 is greater than 1 µM.

`CN(c1ncccc1Cn1ccc2cnc(Nc3ccc(-c4ccc(=O)[nH]c4)cc3)nc21)S(C)(=O)=O` [Example 688]: the EC50 was greater than 1 µM.

Regarding `C[C@H](O)CN1CCN(c2ccc(Nc3ncc4ccn(Cc5cccnc5N(C)S(C)(=O)=O)c4n3)cc2)C[C@H]1C` [Example 694], the EC50 was greater than 1 µM.

Take `CN(c1ncccc1Cn1ccc2cnc(Nc3ccc4[nH]c(C(=O)N5CCNCC5)cc4c3)nc21)S(C)(=O)=O` [Example 696]: the concentration for a half-maximal effect (EC50) was greater than 1 µM.

`CN(c1ccccc1Cn1ccc2cnc(Nc3ccc4[nH]c(C(=O)N5CCNCC5)cc4c3)nc21)S(C)(=O)=O` [Example 698]: the EC50 was greater than 1 µM.

With `C[C@H]1CN(c2ccc(Nc3ncc4ccn(Cc5ccccc5NS(=O)(=O)CCCF)c4n3)cc2)CCN1` [Example 723], the EC50 was greater than 1 µM.

Consider `C[C@@H]1CN(c2ccc(Nc3ncc4c(n3)N(c3ccccn3)CC4(C)C)cc2)CCN1` [Example 726], for which the concentration for a half-maximal effect (EC50) is greater than 1 µM.

As to `CN(c1ncccc1Cn1ccc2cnc(Nc3ccc(N4CCNC(CF)C4)cc3)nc21)S(C)(=O)=O` (centres unmarked) [Example 737, N-(3-((2-((4-(3-(fluoromethyl)piperazin-1-yl)phenyl)amino)-7H-pyrrolo[2,3-d]pyrimidin-7-yl)methyl)pyridin-2-yl)-N-methylmethanesulfonamide], the EC50 was greater than 1 µM.

In another test the target is T3, recombinant human FAK1 (Homo sapiens, UniProt Q05397).
T3 construct: fused on or other part: N-terminal 6xHis tag
T3 sequence (Q05397 422-680 limits assumed): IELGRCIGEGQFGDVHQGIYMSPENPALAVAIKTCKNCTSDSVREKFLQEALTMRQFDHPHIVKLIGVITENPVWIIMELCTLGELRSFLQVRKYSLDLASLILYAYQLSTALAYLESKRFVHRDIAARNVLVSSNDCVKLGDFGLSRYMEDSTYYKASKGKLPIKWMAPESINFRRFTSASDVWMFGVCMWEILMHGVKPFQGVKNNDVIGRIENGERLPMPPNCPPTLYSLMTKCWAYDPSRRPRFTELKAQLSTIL
Put plainly: FAK1 HTRF assay. The format is biochemical.
Conditions: not given
The procedure, abridged: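 His-tagged human FAK1 (residues 692–end, Sf9-expressed), 10 nM final, with 0.5 μM biotinylated gastrin-precursor Tyr87 peptide and a 10 μM final reagent in pH 7.4 buffer, 45 min at rt. Detection used Eu anti-pTyr antibody plus SA-APC (665/620 nm). Compounds top concentration 10 μM; IC50 from % inhibition.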
As to `COc1cc(N2CCNCC2)ccc1Nc1cc2c(cn1)C(C)(C)CN2S(=O)(=O)c1cccc2cccnc12` [Example 635], the IC50 was less than 20 nM.

The next test concerns the target T4, AURKB (Aurora B) enzyme (Homo sapiens, UniProt Q96GD4).
T4 construct: purchased Invitrogen PVR 130
As to the kind of experiment: Aurora B HTRF assay. The format is biochemical. As to conditions: read-out: AuroraB IC50. The procedure, abridged: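 HTRF kinase assay with 5 nM Aurora B and 50 nM ULight-PLK (Ser137) peptide, with a reagent at 30 μM final; 1 h at rt. Reaction stopped with EDTA, and phospho-peptide detected with 2 nM Eu-anti-P-PLK(Ser137) antibody after 1 h at rt, read as HTRF.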
Turning to `COc1cc(N2CCNCC2)ccc1Nc1cc2c(cn1)C(C)(C)CN2S(=O)(=O)c1cccc2cccnc12` [Example 635], the IC50 was greater than 1000 nM.

One may read the IC50 as the concentration needed to halve the response being measured. For orientation: EC50 means the concentration that produces a half-maximal response.
